Measured values reported in patent publication US6777422B2, “Substituted tetrahydroisoquinolines as C5a receptor modulators” (Neurogen Corp., priority 2002, dated 2004).

target: T1, human C5a receptor (Homo sapiens, UniProt P21730); assay: C5a receptor mediated calcium mobilization assay (Example 20); type: cell-based; details: differentiated U937 cells, read-out: Ca2+ (Ki in the standard assay of C5a receptor mediated calcium mobilization)
T1 construct: endogenous in cells; host or cells: U937 cells differentiated with 1 mM dibutyryl cAMP
T1 sequence (P21730 1-350): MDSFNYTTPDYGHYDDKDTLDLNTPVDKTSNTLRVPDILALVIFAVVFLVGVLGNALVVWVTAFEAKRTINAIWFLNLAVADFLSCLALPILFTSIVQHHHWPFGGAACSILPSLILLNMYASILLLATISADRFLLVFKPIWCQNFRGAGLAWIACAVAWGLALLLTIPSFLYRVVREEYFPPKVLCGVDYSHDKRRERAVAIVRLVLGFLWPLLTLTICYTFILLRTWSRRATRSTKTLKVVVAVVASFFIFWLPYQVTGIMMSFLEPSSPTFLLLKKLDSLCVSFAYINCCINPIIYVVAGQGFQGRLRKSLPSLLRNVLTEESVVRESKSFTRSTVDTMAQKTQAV
Procedure, shortened: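 Differentiated U937 cells (dibutyryl cAMP, 48 h) loaded with Fluo-3 were pre-incubated 1 h with compound at 1 μM, then challenged with 0.3 nM (final) human recombinant C5a. Calcium response monitored by FLIPR fluorescence (Ex 480/Em 530 nm); antagonism defined as ≥2-fold decrease versus C5a alone.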

| Ki [nM] | SMILES |
| --- | --- |
| < 1000 | COc1cncc(CN(C(=O)[C@H](C)N2CCc3ccccc3[C@@H]2c2cccc3ccccc23)C2Cc3ccccc3C2)c1 [Compound 127, (2S)-N-(indan-2-yl)-N-[(5-methoxypyridin-3-yl)methyl]-2-[(1R)-1-(1-naphthyl)-3,4-dihydroisoquinolin-2(1H)-yl]propanamide] |

same assay, conditions: differentiated U937 cells, unit inferred, read-out: Ca2+ (numeric value, C5a receptor mediated calcium mobilization)

| Ki [nM] | SMILES |
| --- | --- |
| 547 | Cc1ccccc1C1C(C)CCCN1CC(=O)N(Cc1ccccc1F)C1Cc2ccccc2C1 (centres unmarked) [Compound 128, N-(2-Fluoro-benzyl)-N-indan-2-yl-2-(3-methyl-2-o-tolyl-piperidin-1-yl)-acetamide] |
| 131 | Cc1ccccc1C1CCCCN1CC(=O)N(Cc1ccccc1F)C1Cc2ccccc2C1 (centres unmarked) [Compound 129, N-(2-Fluoro-benzyl)-N-indan-2-yl-2-(2-o-tolyl-piperidin-1-yl)-acetamide] |
| 405 | COc1ccccc1C1CCCCN1CC(=O)N(Cc1ccccc1F)C1Cc2ccccc2C1 (centres unmarked) [Compound 130, N-(2-Fluoro-benzyl)-N-indan-2-yl-2-[2-(2-methoxy-phenyl)-piperidin-1-yl]-acetamide] |
| 465 | CN(CC(=O)N(Cc1ccccc1F)C1Cc2ccccc2C1)C(c1ccccc1)c1ccccc1 [Compound 133, 2-(Benzhydryl-methyl-amino)-N-(2-fluoro-benzyl)-N-indan-2-yl-acetamide] |
| 575 | CC1=C(C)C(c2ccccc2)N(CC(=O)N(Cc2ccccc2F)C2Cc3ccccc3C2)CC1 (centres unmarked) [Compound 134, 2-(4,5-Dimethyl-6-phenyl-3,6-dihydro-2H-pyridin-1-yl)-N-(2-fluoro-benzyl)-N-indan-2-yl-acetamide] |
| 193 | CC1=C(C)C(c2ccccc2C)N(CC(=O)N(Cc2ccccc2F)C2Cc3ccccc3C2)CC1 (centres unmarked) [Compound 135, 2-(4,5-Dimethyl-6-o-tolyl-3,6-dihydro-2H-pyridin-1-yl)-N-(2-fluoro-benzyl)-N-indan-2-yl-acetamide] |
| 39.9 | Cc1ccccc1C1c2ccsc2CCN1CC(=O)N(Cc1ccccc1F)C1Cc2ccccc2C1 (centres unmarked) [Compound 136, N-(2-Fluoro-benzyl)-N-indan-2-yl-2-(4-o-tolyl-6,7-dihydro-4H-thieno[3,2-c]pyridin-5-yl)-acetamide] |
